# Data published in ChEMBL document CHEMBL5528056, “BAY-9835: Discovery of the First Orally Bioavailable ADAMTS7 Inhibitor” (J Med Chem, 2024).
# Several values for one entry are separate records, joined by “and”; a condition that tells them apart may be missing. Equal entries are not always repeated.
# How the values were obtained:
# [1] = Selectivity ratio of IC50 for MMP12 (unknown origin) to IC50 for ADAMTS7 (unknown origin)
# [2] = Clearance in iv-dosed Wistar rat measured after 24 hrs by HPLC-MS/MS analysis; type: ADME; conditions: in vivo
# [3] = target: A disintegrin and metalloproteinase with thrombospondin motifs 7 (Homo sapiens, UniProt Q9UKP4); test: Inhibition of recombinant ADAMTS7 (unknown origin) using HiLyteFluor-488 DELSSMVLELRGLRT-K(QXL520)-E-NH2 as substrate incubated for 120 mins by FRET assay
# Sequence of A disintegrin and metalloproteinase with thrombospondin motifs 7 (Q9UKP4 whole entry): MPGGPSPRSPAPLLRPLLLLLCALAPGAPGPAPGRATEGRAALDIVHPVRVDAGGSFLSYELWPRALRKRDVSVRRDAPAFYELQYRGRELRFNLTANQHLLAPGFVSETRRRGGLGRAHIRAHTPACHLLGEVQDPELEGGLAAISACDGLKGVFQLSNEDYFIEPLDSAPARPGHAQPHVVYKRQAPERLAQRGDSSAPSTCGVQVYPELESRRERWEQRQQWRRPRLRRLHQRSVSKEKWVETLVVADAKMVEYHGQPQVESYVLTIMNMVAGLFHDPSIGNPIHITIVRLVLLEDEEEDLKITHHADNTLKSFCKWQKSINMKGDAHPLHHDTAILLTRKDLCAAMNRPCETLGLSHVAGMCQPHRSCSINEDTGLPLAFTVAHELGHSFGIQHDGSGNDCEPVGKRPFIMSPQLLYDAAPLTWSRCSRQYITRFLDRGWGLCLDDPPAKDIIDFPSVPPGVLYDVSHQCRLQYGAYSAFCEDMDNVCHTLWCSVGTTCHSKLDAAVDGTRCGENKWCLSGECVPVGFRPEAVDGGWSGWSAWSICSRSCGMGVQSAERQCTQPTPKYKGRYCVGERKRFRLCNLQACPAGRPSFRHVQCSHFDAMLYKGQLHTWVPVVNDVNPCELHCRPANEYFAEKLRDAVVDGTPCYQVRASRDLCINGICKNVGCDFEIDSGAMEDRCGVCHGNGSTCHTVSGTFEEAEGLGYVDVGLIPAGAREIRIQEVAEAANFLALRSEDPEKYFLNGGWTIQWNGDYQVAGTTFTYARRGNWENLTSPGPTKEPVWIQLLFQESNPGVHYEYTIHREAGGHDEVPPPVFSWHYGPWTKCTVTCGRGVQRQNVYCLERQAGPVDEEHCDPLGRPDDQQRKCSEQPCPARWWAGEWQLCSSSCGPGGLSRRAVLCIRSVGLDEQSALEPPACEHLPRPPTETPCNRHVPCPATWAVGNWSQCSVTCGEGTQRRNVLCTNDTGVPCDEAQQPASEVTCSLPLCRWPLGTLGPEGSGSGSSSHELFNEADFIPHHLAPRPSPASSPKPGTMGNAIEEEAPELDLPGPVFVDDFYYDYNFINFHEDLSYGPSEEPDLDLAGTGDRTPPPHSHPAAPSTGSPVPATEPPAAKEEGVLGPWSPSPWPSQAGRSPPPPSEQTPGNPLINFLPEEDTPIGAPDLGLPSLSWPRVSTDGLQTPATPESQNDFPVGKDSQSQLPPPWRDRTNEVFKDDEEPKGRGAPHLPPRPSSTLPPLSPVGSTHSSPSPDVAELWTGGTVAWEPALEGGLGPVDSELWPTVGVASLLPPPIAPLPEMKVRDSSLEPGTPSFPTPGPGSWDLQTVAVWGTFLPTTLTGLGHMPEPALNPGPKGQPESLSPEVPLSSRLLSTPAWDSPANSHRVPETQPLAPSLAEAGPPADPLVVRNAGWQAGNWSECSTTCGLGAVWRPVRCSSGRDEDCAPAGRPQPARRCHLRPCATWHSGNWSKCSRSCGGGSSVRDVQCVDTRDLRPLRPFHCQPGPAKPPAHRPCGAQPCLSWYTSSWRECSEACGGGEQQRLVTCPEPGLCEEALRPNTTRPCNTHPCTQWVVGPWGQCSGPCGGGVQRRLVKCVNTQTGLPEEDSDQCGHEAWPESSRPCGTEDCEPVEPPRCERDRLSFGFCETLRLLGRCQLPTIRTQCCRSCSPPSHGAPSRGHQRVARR
# [4] = Selectivity ratio of IC50 for ADAMTS12 (unknown origin) to IC50 for ADAMTS7 (unknown origin)
# [5] = Unbound plasma protein binding in iv-dosed Wistar rat measured after 24 hrs by HPLC-MS/MS analysis; type: ADME, cell-free
# [6] = Oral bioavailability iv-dosed Wistar rat measured after 24 hrs by HPLC-MS/MS analysis; type: ADME, organism-based; conditions: in vivo
# [7] = Selectivity ratio of IC50 for MMP15 (unknown origin) to IC50 for ADAMTS7 (unknown origin)
# [8] = Selectivity ratio of IC50 for ADAMTS4 (unknown origin) to IC50 for ADAMTS7 (unknown origin)
# [9] = Selectivity ratio of IC50 for ADAM17 (unknown origin) to IC50 for ADAMTS7 (unknown origin)
# [10] = Selectivity ratio of IC50 for ADAMTS5 (unknown origin) to IC50 for ADAMTS7 (unknown origin)
# [11] = Selectivity ratio of IC50 for MMP2 (unknown origin) to IC50 for ADAMTS7 (unknown origin)
# [12] = AUC (infinity) in iv-dosed Wistar rat by HPLC-MS/MS analysis; type: ADME; conditions: in vivo
# Cytochrome P450 3A4 = Cytochrome P450 3A4 (Homo sapiens, UniProt P08684); test: Induction of CYP3A4 in human hepatocytes assessed as threshold concentration incubated for 48 hrs by qPCR analysis; type: ADME, cell-based, Hepatocyte
# Sequence of Cytochrome P450 3A4 (P08684 whole entry): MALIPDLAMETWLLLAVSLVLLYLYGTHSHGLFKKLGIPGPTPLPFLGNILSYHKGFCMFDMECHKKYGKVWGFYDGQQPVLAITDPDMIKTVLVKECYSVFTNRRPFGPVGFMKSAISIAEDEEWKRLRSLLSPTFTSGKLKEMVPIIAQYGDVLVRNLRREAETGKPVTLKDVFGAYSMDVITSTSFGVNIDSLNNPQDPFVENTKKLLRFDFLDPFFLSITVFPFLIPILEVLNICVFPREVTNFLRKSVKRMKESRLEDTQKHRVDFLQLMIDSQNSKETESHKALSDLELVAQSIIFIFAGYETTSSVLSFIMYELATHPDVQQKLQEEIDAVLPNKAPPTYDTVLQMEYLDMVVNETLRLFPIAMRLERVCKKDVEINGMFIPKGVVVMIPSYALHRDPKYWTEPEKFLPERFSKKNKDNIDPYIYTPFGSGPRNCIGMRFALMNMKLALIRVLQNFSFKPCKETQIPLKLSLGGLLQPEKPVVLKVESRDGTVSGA
SMILES,Ratio IC50 [1],IC50 [3],also measured
O=C1NC(=O)[C@](CNC(=O)c2cnn(-c3cccc(F)c3)n2)(C2CC2)N1,1.1,,
O=C1NC(=O)[C@](CNC(=O)c2cnn(-c3ccc(F)cn3)n2)(C2CC2)N1,0.6,115 nM,
O=C1NC(=O)[C@](CNC(=O)c2cnn(Cc3ccc(Cl)cc3)c2)(C2CC2)N1,7.4,280 nM,
O=C1NC(=O)[C@](CNC(=O)c2cnn(-c3cccc(Cl)c3)n2)(C2CC2)N1,0.1,,
Cc1ccc(-c2ccc(C(=O)NC[C@@]3(C4CC4)NC(=O)NC3=O)cc2)cc1,4.7 10^-4No_unit,580 nM,
O=C1NC(=O)[C@](CNC(=O)c2cnn(-c3ccc(Cl)cc3)n2)(C2CC2)N1,0.8,,
Cc1cn(-c2ccccc2)nc1C1(CNC(=O)c2ccc(F)c(F)c2-c2ccc(C(F)(F)F)cc2)NC(=O)NC1=O (centres undefined),,8 nM,Ratio IC50 [4]: 14
Cc1ccc(-n2ncc(C(=O)NC[C@@]3(C4CC4)NC(=O)NC3=O)n2)cc1,0.1,,
O=C1NC(=O)[C@](CNC(=O)c2cnn(-c3ccccc3)n2)(C2CC2)N1,,61 nM,Fu [5]: 15%; F [6]: 74%; CL [2]: 12 mL/min/kg; Ratio IC50 [4]: 0.2
O=C1NC(=O)[C@](CNC(=O)c2cnn(-c3cnsc3)n2)(C2CC2)N1,0.2,,
Cn1cc(Cn2ncc(C(=O)NC[C@@]3(C4CC4)NC(=O)NC3=O)n2)cn1,29.4,850 nM,
Cc1sc(-c2cccnc2)nc1C1(CNC(=O)c2ccc(F)c(F)c2-c2ccc(C(F)(F)F)cc2)NC(=O)NC1=O (centres undefined),,9 nM,Ratio IC50 [4]: 14
O=C1NC(=O)[C@](CNC(=O)c2ccccc2-c2ccc(C(F)(F)F)cc2)(C2CC2)N1,11,,CL [2]: 1.7 mL/min/kg
O=C1NC(=O)[C@](CNC(=O)c2cnn(-c3ccc(F)cc3)n2)(C2CC2)N1,,,Ratio IC50 [7]: 41700; Ratio IC50 [8]: > 20800; Ratio IC50 [9]: 863; Ratio IC50 [10]: 12700; Ratio IC50 [4]: 26
O=C1NC(=O)[C@](CNC(=O)c2cnn(-c3ccccc3)c2)(C2CC2)N1,0.03,,
Cc1ccc(-c2cccc(C(=O)NC[C@@]3(C4CC4)NC(=O)NC3=O)c2)cc1,,2300 nM,
O=C1NC(=O)[C@](CNC(=O)c2cnn(-c3ccccc3F)n2)(C2CC2)N1,0.4,,
Cc1ccc(-c2ccccc2C(=O)NC[C@@]2(C3CC3)NC(=O)NC2=O)cc1,12 and 12.4,,Ratio IC50 [7]: 872; Ratio IC50 [8]: 115; Ratio IC50 [9]: 826; Ratio IC50 [10]: 213; Ratio IC50 [11]: 759
O=C1NC(=O)[C@](CNC(=O)c2cnn(Cc3nccs3)n2)(C2CC2)N1,4.6,910 nM,
Cc1nc(Cn2ncc(C(=O)NC[C@@]3(C4CC4)NC(=O)NC3=O)n2)cs1,33.5,930 nM,
Cc1sc(-c2ccccc2)nc1C1(CNC(=O)c2ccc(F)c(F)c2-c2ccc(C(F)(F)F)cc2)NC(=O)NC1=O (centres undefined),,47 nM,Ratio IC50 [4]: 10
Cn1nccc1[C@]1(CNC(=O)c2ccccc2-c2ccc(C(F)(F)F)cc2)NC(=O)NC1=O,,,Ratio IC50 [7]: 6390; Ratio IC50 [8]: 1440; Ratio IC50 [9]: 303; Activity (Cytochrome P450 3A4): 16.6 µM; Ratio IC50 [10]: 3220; Ratio IC50 [11]: 8320; Ratio IC50 [4]: 1

# Continued, in another order:
Ratio IC50 [1],IC50 [3],SMILES,also measured
,19 nM,Cn1nccc1[C@]1(CNC(=O)c2cc(F)ccc2-c2ccc(C(F)(F)F)cc2)NC(=O)NC1=O,CL [2]: 10 mL/min/kg
96,,CCn1nccc1C1(CNC(=O)c2ccccc2-c2ccc(C(F)(F)F)cc2)NC(=O)NC1=O (centres undefined),CL [2]: 17 mL/min/kg
67,,O=C1NC(=O)C(CNC(=O)c2ccccc2-c2ccc(C(F)(F)F)cc2)(c2cscn2)N1 (centres undefined),CL [2]: 23.3 mL/min/kg
,10 nM,Cn1nccc1[C@]1(CNC(=O)c2ccc(C(F)(F)F)c(F)c2-c2ccc(C(F)(F)F)cc2)NC(=O)NC1=O,
31,,O=C1NC(=O)C(CNC(=O)c2ccccc2-c2ccc(C(F)(F)F)cc2)(c2ncsc2C(F)(F)F)N1 (centres undefined),
,29 nM,COc1cccc(C(=O)NC[C@@]2(c3ccnn3C)NC(=O)NC2=O)c1-c1ccc(C(F)(F)F)cc1,
36,15 nM,Cc1nc(C2(CNC(=O)c3ccccc3-c3ccc(C(F)(F)F)cc3)NC(=O)NC2=O)c(C)s1 (centres undefined),
188,6 nM,Cc1scnc1C1(CNC(=O)c2ccccc2-c2ccc(C(F)(F)F)cc2)NC(=O)NC1=O (centres undefined),CL [2]: 20 mL/min/kg
29,,O=C1NC(=O)C(CNC(=O)c2ccccc2-c2ccc(C(F)(F)F)cc2)(c2ccnn2CC(F)(F)F)N1 (centres undefined),
1450,,Cn1nc(-c2ccccc2)cc1C1(CNC(=O)c2ccc(F)c(F)c2-c2ccc(C(F)(F)F)cc2)NC(=O)NC1=O (centres undefined),Ratio IC50 [7]: 41700; Ratio IC50 [8]: > 20800; Ratio IC50 [9]: 863; Ratio IC50 [10]: 12700; Ratio IC50 [4]: 26
,3 nM,Cn1nccc1[C@]1(CNC(=O)c2ccc(Cl)c(F)c2-c2ccc(C(F)(F)F)cc2)NC(=O)NC1=O,
,5 nM,Cn1nccc1[C@]1(CNC(=O)c2cccc(F)c2-c2ccc(C(F)(F)F)cc2)NC(=O)NC1=O,CL [2]: 12 mL/min/kg
450,3 nM,"Cn1ccnc1C1(CNC(=O)c2ccccc2-c2ccc(C(F)(F)F)cc2)NC(=O)NC1=O (single isomer, unassigned)",AUC [12]: 0.6 kg·h/L; Activity (Cytochrome P450 3A4): 0.6 µM
,19 nM,Cn1nccc1[C@]1(CNC(=O)c2ccc(F)cc2-c2ccc(C(F)(F)F)cc2)NC(=O)NC1=O,CL [2]: 15 mL/min/kg
,16 nM,Cn1nccc1[C@]1(CNC(=O)c2cccc(Cl)c2-c2ccc(C(F)(F)F)cc2)NC(=O)NC1=O,
18,,Cc1c(C2(CNC(=O)c3ccccc3-c3ccc(C(F)(F)F)cc3)NC(=O)NC2=O)cnn1C (centres undefined),
,79 nM,Cn1nccc1[C@]1(CNC(=O)c2c(F)cccc2-c2ccc(C(F)(F)F)cc2)NC(=O)NC1=O,
